Source: patent US20260284422A1, “BRAIN TUMOR TREATMENT OR PREVENTION OF RECURRENCE WITH LOW INTENSITY AND VARIABLE FREQUENCY MAGNETIC STIMULATION” (ACTIPULSE NEUROSCIENCE INC., priority 2023, published 2026)

Test: Evans Blue dye uptake into brain (BBB permeability) in mice given rTMS or sham
Type: in vivo, wild-type C57BL/6 mice
Description: An in vivo mouse model was used to evaluate the use of rTMS to open the BBB. Ten wild-type C57BL/6 mice where anesthetized and received an intravenous (IV) injection of a 2% Evans Blue dye (in a vehicle of 0.9% NaCl). Evans Blue dye (also referred to as EBD or T-1824) is a non-toxic, azo-based injectable dye that presents visually with a dark blue/brown color. The dye has an affinity for serum albumin and is generally used to assess the permeability of the BBB in vivo. Most tissues will present darker, but neural tissue generally remains unstained. Mice injected with Evans Blue dye were then administered rTMS or a sham treatment and a histological analysis of the brain was performed to evaluate changes in permeability of the BBB. rTMS was administered according to Table 1.
The dye was administered as 100 μL 2% Evans blue (in 0.9% NaCl) via retro orbital injection. Mice were then administered rTMS or a sham (no magnetic field), e.g., as shown in the method overview depicted in FIGS. 2 and 3 for either 1 hr. or 30 min. Mice were euthanized, perfused with 10 mL PBS to expel blood from the organs, and analyzed for the presence of hemorrhage and lesion, e.g., as shown in the representative imaging in FIG. 3. Mice presented as lacking hemorrhage, lesion, or any signs of tissue damage.
Brains were then submerged in 20% sucrose for 2 hr. and embedded in optimal cutting temperature compound (OCT compound) and frozen. The brain was then sectioned at 16 μm thickness, rinsed with PBS, and mounted for scanning at 40× magnification. Section imaging was performed using a digital slide scanner.
An imaging software was used to evaluate the pixelate density and area of staining in brain sections for calculating a comparison of Evans Blue dye uptake into the brain tissue.

Structure (SMILES): Cc1cc(-c2ccc(/N=N/c3ccc4c(S(=O)(=O)O)cc(S(=O)(=O)O)c(N)c4c3O)c(C)c2)ccc1/N=N/c1ccc2c(S(=O)(=O)O)cc(S(=O)(=O)O)c(N)c2c1O [Evans Blue, Evans Blue dye]
- Mean area of brain section stained with Evans Blue, rTMS group (100 μL 2% Evans blue retro-orbital, then rTMS, 16 μm brain sections, n=4): 11.12 mm^2
- Mean area of brain section stained with Evans Blue, sham group (100 μL 2% Evans blue retro-orbital, then sham (no magnetic field), 16 μm brain sections, n=4): 5.665 mm^2
- Difference between means ± SEM of stained area (rTMS vs sham) (unpaired t-test, P 0.004, n=4 per group): 5.456 ± 1.209 mm^2
